Measured values: patent US20230295197A1, “STAT5 and STAT6 Degraders and Uses Thereof” (REGENTS OF THE UNIVERSITY OF MICHICAN, priority 2022, published 2023)
Read-outs that look alike come from different tables or passages of the source.

Biological target: T1, STAT6 (Homo sapiens, UniProt P42226)
T1 construct: endogenous in cells; host or cells: MOLM-16, KU-812, SKNO1, MB231, L1236
T1 sequence (P42226 1-847): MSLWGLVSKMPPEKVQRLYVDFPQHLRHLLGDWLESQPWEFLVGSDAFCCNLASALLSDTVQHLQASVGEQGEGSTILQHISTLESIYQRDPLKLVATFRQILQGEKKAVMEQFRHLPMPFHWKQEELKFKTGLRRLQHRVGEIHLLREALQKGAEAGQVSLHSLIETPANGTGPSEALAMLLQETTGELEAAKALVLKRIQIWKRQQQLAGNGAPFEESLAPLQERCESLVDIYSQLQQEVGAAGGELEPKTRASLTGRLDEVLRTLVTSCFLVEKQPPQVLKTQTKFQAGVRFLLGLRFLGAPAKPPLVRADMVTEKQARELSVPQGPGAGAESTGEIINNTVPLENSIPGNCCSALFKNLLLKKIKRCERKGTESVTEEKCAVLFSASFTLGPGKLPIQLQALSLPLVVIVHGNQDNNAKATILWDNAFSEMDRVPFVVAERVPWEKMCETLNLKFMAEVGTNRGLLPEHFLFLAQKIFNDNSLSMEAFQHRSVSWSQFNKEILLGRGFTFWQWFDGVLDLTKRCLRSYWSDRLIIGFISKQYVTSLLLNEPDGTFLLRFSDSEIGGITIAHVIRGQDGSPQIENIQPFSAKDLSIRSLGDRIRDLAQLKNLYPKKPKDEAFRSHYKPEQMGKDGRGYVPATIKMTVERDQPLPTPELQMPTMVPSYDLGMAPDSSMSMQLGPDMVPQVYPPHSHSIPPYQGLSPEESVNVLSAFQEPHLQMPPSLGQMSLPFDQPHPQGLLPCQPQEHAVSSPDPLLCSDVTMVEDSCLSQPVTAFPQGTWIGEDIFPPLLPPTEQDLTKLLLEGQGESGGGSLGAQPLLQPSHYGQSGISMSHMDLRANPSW
Assay: Immunoblotting (Western blot) analysis of STAT6 degradation efficiency of degraders in treated cells
Assay type: cell-based
Procedure, shortened: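 Each data point uses roughly one million cells dosed as indicated; pellets are lysed on ice, freeze-thawed, and clarified. Reduced, denatured samples (95 °C, 5 min) run on SDS gels, then membranes receive rabbit mAbs to STAT5 or STAT6 plus mouse anti-GAPDH overnight, followed by dye-labelled secondaries for fluorescence imaging.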

[1] = L1236 cells, read-out: DC50 S6 L1236
[2] = MB231 cells, read-out: DC50 S6 MB231
[3] = MOLM-16 cells, class symbols, read-out: DC50 S6 MOLM-16

SMILES | DC50 [1] | DC50 [2] | DC50 [3]
Cc1ncsc1-c1ccc(CNC(=O)[C@@H]2C[C@@H](O)CN2C(=O)[C@@H](NC(=O)CCCCCCCCNC(=O)CO[C@@H]2C[C@@H](C(=O)N(C)c3ccc(Br)cc3)N(C(=O)[C@@H](NC(=O)c3cc4cc(C(F)(F)P(=O)(O)O)ccc4s3)C(C)(C)C)C2)C(C)(C)C)cc1 [Compound 420, ((2-(((S)-1-((2S,4R)-2-((4-bromophenyl)(methyl)carbamoyl)-4-(2-((9-(((S)-1-((2S,4R)-4-hydroxy-2-((4-(4-methylthiazol-5-yl)benzyl)carbamoyl)pyrrolidin-1-yl)-3,3-dimethyl-1-oxobutan-2-yl)amino)-9-oxononyl)amino)-2-oxoethoxy)pyrrolidin-1-yl)-3,3-dimethyl-1-oxobutan-2-yl)carbamoyl)benzo[b]thiophen-5-yl)difluoromethyl)phosphonic acid] | > 10 µM | > 10 µM | –
Cc1ncsc1-c1ccc([C@H](C)NC(=O)[C@@H]2C[C@@H](O)CN2C(=O)[C@@H](NC(=O)CNC(=O)COc2ccc3c(c2)CN(C(=O)[C@@H](NC(=O)c2cc4cc(C(F)(F)P(=O)(O)O)ccc4s2)C(C)(C)C)[C@H](C(=O)N2CCC[C@H](c4ccccc4)C2)C3)C(C)(C)C)cc1 [Compound 470, (difluoro(2-(((S)-1-((S)-7-(2-((2-(((S)-1-((2S,4R)-4-hydroxy-2-(((S)-1-(4-(4-methylthiazol-5-yl)phenyl)ethyl)carbamoyl)pyrrolidin-1-yl)-3,3-dimethyl-1-oxobutan-2-yl)amino)-2-oxoethyl)amino)-2-oxoethoxy)-3-((R)-3-phenylpiperidine-1-carbonyl)-3,4-dihydroisoquinolin-2(1H)-yl)-3,3-dimethyl-1-oxobutan-2-yl)carbamoyl)benzo[b]thiophen-5-yl)methyl)phosphonic acid] | – | – | > 10 µM
CC(C)(C)[C@H](NC(=O)c1cc2cc(C(F)(F)P(=O)(O)O)ccc2s1)C(=O)N1C[C@@H](OCCCCCCCCCC#Cc2cccc3c2CN(C2CCC(=O)NC2=O)C3=O)C[C@H]1C(=O)N1CCO[C@H](c2ccccc2)C1 (stereo partly drawn) [Compound 584, ((2-(((2S)-1-((2S,4S)-4-((11-(2-(2,6-dioxopiperidin-3-yl)-1-oxoisoindolin-4-yl)undec-10-yn-1-yl)oxy)-2-((R)-2-phenylmorpholine-4-carbonyl)pyrrolidin-1-yl)-3,3-dimethyl-1-oxobutan-2-yl)carbamoyl)benzo[b]thiophen-5-yl)difluoromethyl)phosphonic acid] | > 10 µM | – | 0.1 to 1 µM
Cc1cc([C@H](C(=O)N2C[C@H](O)C[C@H]2C(=O)N[C@@H](CC(=O)NCCOCCOCCOCCNC(=O)CCN(C(=O)[C@@H]2CCCN2C(=O)[C@@H](NC(=O)c2cc3cc(C(F)(F)P(=O)(O)O)ccc3s2)C(C)(C)C)c2ccc(Br)cc2)c2ccc(-c3scnc3C)cc2)C(C)C)on1 [Compound 409, ((2-(((S)-1-((S)-2-((4-bromophenyl)((S)-1-((2S,4R)-4-hydroxy-1-((R)-3-methyl-2-(3-methylisoxazol-5-yl)butanoyl)pyrrolidin-2-yl)-3-(4-(4-methylthiazol-5-yl)phenyl)-1,5,19-trioxo-9,12,15-trioxa-2,6,18-triazahenicosan-21-yl)carbamoyl)pyrrolidin-1-yl)-3,3-dimethyl-1-oxobutan-2-yl)carbamoyl)benzo[b]thiophen-5-yl)difluoromethyl)phosphonic acid] | – | > 10 µM | –
